Measured values published in patent US8802149B2, “Systems and processes for spray drying hydrophobic and hydrophilic components” (Novartis Pharma AG, priority 1996, dated 2014).

Assay: Solubility of drug and excipient in common organic solvent or cosolvent system
Type: physicochemical
Settings: for solubility in Acetone (50%)/Water (50%) (by volume): solvent Acetone (50%)/Water (50%) by volume
From the text: According to the third aspect of the present invention. an organic solvent or cosolvent is selected in which both the hydrophobic drug or other component and the hydrophilic excipient or other component may be dissolved. […] The solvent must further be selected to leave minimum residual solvent in the spray dried process and/or be capable of being adequately removed from the spray dried product. The particular organic solvent or cosolvent selected will depend on the nature of the hydrophobic drug and the hydrophilic excipient.
Each of these formulations has been spray dried and tested as described in further detail in the Experimental section hereinafter.

Compound | solubility in Acetone (50%)/Water (50%) (by volume) | solubility in DMSO (33%)/Acetone (67%) (by volume) (solvent DMSO (33%)/Acetone (67%) by volume) | solubility in Ethanol (solvent Ethanol) | solubility in Methanol (solvent Methanol)
CCCC1O[C@@H]2C[C@H]3[C@@H]4CCC5=CC(=O)C=C[C@]5(C)[C@H]4[C@@H](O)C[C@]3(C)[C@]2(C(=O)CO)O1 (some centres unmarked) [Budesonide] | (adequate solubility) | (good solubility) | (adequate solubility) | (good solubility)
OC[C@@H](O)[C@@H](O)[C@H](O)[C@H](O)CO [Mannitol] | (adequate solubility) |  |  | 
